Reference: US4734416A, “Pharmaceutically useful carbostyril derivatives” (Otsuka Pharmaceutical Co., Ltd., priority 1978, dated 1988)
Counter-ions that a name gives are not always drawn.

Key:
[1] = target: T1, enucleated ileum of a guinea pig (Cavia porcellus, UniProt P31389); assay: Antihistamine activity test in vitro (enucleated guinea pig ileum, histamine retraction, pA2 by Van Rossam method); conditions: 10^-6 g/ml test compound, 5 minutes before histamine, 36° C.
T1 construct: the tissue of ileum is cut to a length of 2.5 to 3.0 cm and suspended in an organ bath; from tissue; host or cells: isolated ileum from the ileocecal region of male guinea pig
T1 sequence (P31389 whole entry): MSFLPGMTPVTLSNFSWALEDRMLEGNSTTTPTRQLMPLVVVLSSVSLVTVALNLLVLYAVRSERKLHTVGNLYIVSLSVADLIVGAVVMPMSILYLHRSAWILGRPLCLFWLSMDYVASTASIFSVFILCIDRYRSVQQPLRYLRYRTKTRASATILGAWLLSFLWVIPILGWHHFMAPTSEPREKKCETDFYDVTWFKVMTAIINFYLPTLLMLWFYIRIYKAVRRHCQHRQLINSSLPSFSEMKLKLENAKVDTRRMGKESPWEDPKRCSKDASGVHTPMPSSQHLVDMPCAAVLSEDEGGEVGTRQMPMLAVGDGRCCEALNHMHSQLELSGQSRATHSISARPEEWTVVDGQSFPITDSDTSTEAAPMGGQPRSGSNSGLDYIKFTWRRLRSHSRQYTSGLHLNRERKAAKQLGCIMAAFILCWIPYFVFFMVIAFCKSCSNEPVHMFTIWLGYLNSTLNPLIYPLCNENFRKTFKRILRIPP
Description: As to the test method for determining antihistamine activity of a compound in vitro, a method of using an enucleated ileum of a guinea pig is generally accepted.
A male guinea pig having 300 to 500 g body weight is killed by blood letting. An ileum having a length of 15 cm being enculeated from the ileocecal region is dipped into Tyrode's solution (which is prepared from […], 0.2 g of KCl, 0.2 g of CaCl2, 1.0 g of glucose, 1.0 g of NaHCO3, 0.065 g of NaHPO4.2H2 O and 0.2135 g of MgCl2.6H2 O to make 1000 ml in total volume by adding water). Then the tissue of ileum is cut to a length of 2.5 to 3.0 cm and suspended in an organ bath filled with 30 ml of Tyrode's solution. The organ bath is kept at a temperature of 36° C. and a mixed gas consisting of 5% of CO2 and 95% of O2 is blown into the bath. 10 Minutes after the blowing, 10^-6 M of histamine is added to the bath to examine the sensitivity of the tissue and a reaction curve (control) with respect to the dosage of histamine is obtained. After the dosage of histamine-reaction curve (control) becomes constant, 10^-6 g/ml of a compound to be tested is added to the bath and further histamine is added 5 minutes later to obtain a dosage-reaction curve. Retraction of the ileum is recorded on a pen-recorder through an isotonic transducer [TD-112S manufactured by Nihon Koden]. Antihistamine activity of the test compound is determined as pA2 value by the "Van Rossam" method [J. M. Van Rossam; Arch. Inst. Pharmacodyn., 143, 299 (1963)] wherein the maximum retraction of ileum caused by histamine shown in the control curve is 100%.

[2] = Halothane anesthesia increasing activity (righting reflex); type: in vivo, mouse (male, ddy-strain); conditions: oral; for Time (minutes) between introduction of anesthesia and waking: 8 mg/kg, 1 hour before 4% Halothane
Description: Male mice of ddy-strain having about 20 g body weight are used. One test group consists of 10 mice. An aqueous Gummi Arabicum suspension of test compound (80 mg of a compound to be tested and 1 g of Gummi Arabicum/100 ml of physiological NaCl solution) is administered orally to each mouse at the dosage of 8 mg of test compound/kg body. One hour after the administration, each mouse is placed in a gas respiration chamber (13×13×24 cm) and oxygen gas containing 4% of Halothane [2-bromo-2-chloro-1,1,1-trifluoroethane] is blown into the chamber at the velocity of 2 l/min for 3 minutes. A mouse anaesthetized is taken out from the chamber and the time between the introduction of anesthesia to waking is measured by righting reflex as the index. To mice of the control group, 1% Gummi Arabicum aqueous physiological solution is orally administered at the dosage of 0.1 ml/10 g body. [Reference: M. J. Turnbull and J. W. Watkins: Br. J. Pharmac., 58, 27-35 (1976)]
Same procedures as mentioned in (II)-(A) are employed, except that the amount of test compound to be orally administered is changed in 4 steps at the dosage of 0.5 mg/kg, 1 mg/kg, 2 mg/kg and 4 mg/kg respectively to measure the relationship between the dosage and degree of strength of anesthesia increasing activity.

Row | Structure (SMILES) | Kb [1] | Time (minutes) between introduction of anesthesia and waking [2] | Anesthesia increasing activity ([2]; 0.5 mg/kg) | Anesthesia increasing activity ([2]; 1 mg/kg) | Anesthesia increasing activity ([2]; 2 mg/kg) | Anesthesia increasing activity ([2]; 4 mg/kg)
1 | O=C1CCc2cc(Cl)c(OCCCN3CCN(c4ccccc4)CC3)c(Br)c2N1 [Compound 28, 6-Chloro-8-bromo-7-[3-(4-phenylpiperazinyl)propoxy]-3,4-dihydrocarbostyril dihydrochloride] | 0.229 nM | 10.2 ± 5.8 min |  |  |  | 
2 | Cc1cc(=O)[nH]c2cc(OCCCN3CCN(c4ccccc4)CC3)ccc12 [Compound 13, 4-Methyl-7-[3-(4-phenylpiperazinyl)propoxy]carbostyril] | 0.407 nM | 8.1 ± 2.7 min |  |  |  | 
3 | O=c1ccc2cc(OCCCN3CCN(c4ccccc4)CC3)ccc2[nH]1 [Compound 36, 6-[3-(4-Phenylpiperazinyl)propoxy]carbostyril] | 10.2 nM | 15.3 ± 3.1 min |  |  |  | 
4 | O=C1CCc2c(OCC(O)CN3CCN(c4ccccc4)CC3)cccc2N1Cc1ccccc1 (stereo not shown) [Compound 8, 1-Benzyl-5-[2-hydroxy-3-(4-phenylpiperazinyl)propoxy]-3,4-dihydrocarbostyril monohydrochloride] | 0.0158 nM | 7.5 ± 3.3 min |  |  |  | 
5 | COc1ccccc1N1CCN(CCCOc2ccc3ccc(=O)[nH]c3c2)CC1 [Compound 22, 7-{3-[4-(2-Methoxyphenyl)piperazinyl]propoxy}-carbostyril dihydrochloride] | 11.7 nM | 10.4 ± 4.1 min |  |  |  | 
6 | O=C1CCc2c(cccc2OCC(O)CN2CCN(c3ccccc3)CC2)N1 (stereo not shown) [Compound 1, 5-[2-Hydroxy-3-(4-phenylpiperazinyl)propoxy]-3,4-dihydrocarbostyril monohydrochloride] | 8.32 nM | 9.3 ± 4.9 min |  |  |  | 
7 | O=C1CCc2ccc(OCCCN3CCN(C(=O)c4ccccc4)CC3)cc2N1 [Compound 35, 7-[3-(4-Benzoylpiperazinyl)propoxy]-3,4-dihydrocarbostyril] | 2.63 nM | 8.2 ± 3.7 min |  |  |  | 
8 | C=CCN1C(=O)CCc2c(OCC(O)CN3CCN(c4ccc(C)cc4)CC3)cccc21 (stereo not shown) [Compound 11, 1-Allyl-5-{2-hydroxy-3-[4-(4-methylphenyl)piperazinyl]propoxy}-3,4-dihydrocarbostyril] | 0.617 nM | 6.8 ± 2.2 min |  |  |  | 
9 | CC(=O)OCCN1CCN(CCCOc2ccc3c(c2)NC(=O)CC3)CC1 [Compound 32, 7-{3-[4-(2-Acetyloxyethyl)piperazinyl]propoxy}-3,4-dihydrocarbostyril] | 30.2 nM | 7.9 ± 3.1 min |  |  |  | 
10 | CCCC(C)C1(CC)C(=O)NC(=O)NC1=O (stereo not shown) [Pentobarbital, reference compound] |  |  | 5.3 ± 2.6 min | 4.9 ± 3.5 min | 6.3 ± 2.3 min | 8.1 ± 3.1 min
11 | O=C1CCc2ccc(OCCCN3CCN(c4ccc(Cl)cc4)CC3)cc2N1 [Compound 16, 7-{3-[4-(4-Chlorophenyl)piperazinyl]propoxy}-3,4-dihydrocarbostyril] | 0.234 nM | 11.4 ± 5.6 min |  |  |  | 
12 | CCCCCCN1C(=O)CCc2ccc(OCCCN3CCN(c4ccccc4)CC3)cc21 [Compound 38, 1-Hexyl-7-[3-(4-phenylpiperazinyl)propoxy)]-3,4-dihydrocarbostyril dihydrochloride] | 1.17 nM |  |  |  |  | 
13 | O=C1CCc2ccc(OCCCN3CCN(c4ccccc4)CC3)cc2N1Cc1ccccc1 [Compound 12, 1-Benzyl-7-[3-(4-phenylpiperazinyl)propoxy]-3,4-dihydrocarbostyril] | 6.17 nM | 7.5 ± 3.5 min |  |  |  | 
14 | O=C1CCc2c(OCC(O)CN3CCN(c4ccc(Cl)cc4)CC3)ccc(Cl)c2N1 (stereo not shown) [Compound 3, 8-Chloro-5-{2-hydroxy-3-[4-(4-chlorophenyl)piperazinyl]propoxy}-3,4-dihydrocarbostyril monohydrochloride] | 4.9 nM | 7.9 ± 3.4 min |  |  |  | 
15 | O=C1CCc2ccc(OCCCN3CCN(CCO)CC3)cc2N1 [Compound 33, 7-{3-[4-(2-Hydroxyethyl)piperazinyl]propoxy}-3,4-dihydrocarbostyril] | 95.5 nM | 7.4 ± 2.6 min |  |  |  | 
16 | COc1cc(N2CCN(CCCOc3ccc4c(c3)NC(=O)CC4)CC2)cc(OC)c1OC [Compound 29, 7-{3-[4-(3,4,5-Trimethoxyphenyl)piperazinyl]propoxy}-3,4-dihydrocarbostyril dihydrochloride] | 2.69 nM | 9.3 ± 4.4 min | 5.6 ± 2.8 min | 6.6 ± 3.1 min | 8.3 ± 3.7 min | 13.6 ± 4.9 min
17 | CC(=O)N1CCN(CCCOc2ccc3c(c2)NC(=O)CC3)CC1 [Compound 34, 7-[3-(4-Acetylpiperazinyl)propoxy]-3,4-dihydrocarbostyril] | 57.5 nM | 7.8 ± 3.4 min |  |  |  | 
18 | Cc1ccc(N2CCN(CCCCOc3cccc4c3CCC(=O)N4)CC2)cc1 [Compound 10, 5-{4-[4-(4-Methylphenyl)piperazinyl]butoxy}-3,4-dihydrocarbostyril] | 1.26 nM | 7.9 ± 3.7 min |  |  |  | 
19 | CC(=O)OC(COc1cccc2c1CCC(=O)N2)CN1CCN(c2ccccc2)CC1 (stereo not shown) [Compound 20, 5-[2-Acetyloxy-3-(4-phenylpiperazinyl)propoxy]-3,4-dihydrocarbostyril] | 1.23 nM | 9.8 ± 3.7 min |  |  |  | 
20 | O=C1CCc2c(c(Cl)cc(Cl)c2OCC(O)CN2CCN(c3ccccc3)CC2)N1 (stereo not shown) [Compound 4, 6,8-Dichloro-5-[2-hydroxy-3-(4-phenylpiperazinyl)propoxy]-3,4-dihydrocarbostyril monohydrochloride] | 1.12 nM | 7.4 ± 2.7 min |  |  |  | 
21 | CC1CN(CCCOc2ccc3c(c2)NC(=O)CC3)CCN1c1ccc(Cl)cc1 (stereo not shown) [Compound 18, 7-{3-[3-Methyl-4-(4-chlorophenyl)piperazinyl]propoxy}-3,4-dihydrocarbostyril dihydrochloride] | 2.19 nM | 8.4 ± 2.5 min |  |  |  | 
22 | O=c1cc(OCCCN2CCN(c3ccccc3)CC2)c2ccccc2[nH]1 [Compound 26, 4-[3-(4-Phenylpiperazinyl)propoxy]carbostyril] | 2.19 nM | 8.5 ± 3.7 min |  |  |  | 
23 | COc1cc(C(=O)OC(COc2cccc3c2CCC(=O)N3)CN2CCN(c3ccccc3)CC2)cc(OC)c1OC (stereo not shown) [Compound 21, 5-[2-(3,4,5-Trimethoxybenzoyloxy)-3-(4-phenylpiperazinyl)propoxy]-3,4-dihydrocarbostyril] | 0.912 nM | 8.1 ± 3.9 min |  |  |  | 
24 | O=C1CCc2cccc(OCCCN3CCN(c4ccccc4)CC3)c2N1 [Compound 19, 8-[3-(4-Phenylpiperazinyl)propoxy]-3,4-dihydrocarbostyril] | 10.2 nM | 9.3 ± 3.5 min |  |  |  | 
25 | O=C1CCc2ccc(OCC(O)CN3CCN(c4ccccc4)CC3)cc2N1 (stereo not shown) [Compound 2, 7-[2-Hydroxy-3-(4-phenylpiperazinyl)propoxy]-3,4-dihydrocarbostyril monohydrochloride] | 17.8 nM | 11.7 ± 5.6 min |  |  |  | 
